The melting point is the temperature of the solid-liquid transition. Turning to `CCCOCc1cc2c(-c3ccc(OCc4ccccc4)cc3)c(CC)c3cccc1n32`, the melting point fell in the range of 78 to 80 °C.

Regarding `COc1ccc(Sc2ccncc2)c([N+](=O)[O-])c1`, the melting point was 57 to 59 °C.

As for `COC(=O)c1ccc(Cc2c(Cl)n(C)c3ccc(CC(C)NC(=O)N(C)C)cc23)c(OC)c1` (stereo unspecified), the melting point was 148 °C.

Consider `COC(=O)N[C@@H]1Cc2ccccc2N(OC)C1=O`, for which the melting point is 117 to 119 °C.

Take `CCCc1c(O)ccc2c(=O)cc(/C=C/C(=O)OCC)oc12`: the melting point was 203 to 204 °C.

Turning to `O=C(NC1C2CC3CC(C2)CC1C3)c1cc(-c2ccc(Cl)cc2)n(Cc2ccc(Cl)cc2Cl)n1` (stereo unspecified), the melting point was 154 °C.

In turn, `CC(C)(C)OC(=O)N[C@H](Cc1ccc(Cl)c(Cl)c1)C(=O)N1CCC[C@H]1C(=O)NCC1CCc2n[nH]cc2C1` (stereo partly specified) showed a melting point of 100 to 103 °C.

The compound `CC1CC(=O)c2c(C(=O)Nc3cccnc3)c[nH]c2C1` (stereo unspecified) gave a melting point of 225 to 227 °C.

On to `CC(C)(C)Nc1c(NCc2ccc(F)cc2)c(=O)c1=O`, for which the melting point was 296 to 298 °C.

`COc1ccc2c(c1)C(Cc1ccnc(F)c1)(Cc1ccnc(F)c1)c1ccccc1C2=O` displayed a melting point of 155 to 157 °C.

As to `CCCN(Cc1ccc(-c2ccccc2-c2nnn[nH]2)cc1)c1ncccc1C(=O)O`, the melting point was 202 to 204 °C.

For `CCOC(=O)CNC(=O)C1(N(C(=O)c2ccc(N)cc2)N2CCCCC2)CCCCC1`, the melting point fell in the range of 92 to 96 °C.

Compound `CCc1nc(O)c(I)c(Cl)n1` displayed a melting point of over 230 °C.

Consider `CCCCN1CCCC1=NC(=O)Nc1cccc(Cl)c1`, for which the melting point was 94 to 96 °C.

In turn, `CCOc1ccc2nc3cc(OC)c(=O)c(Cl)c-3sc2c1` displayed a melting point of 236 to 239 °C.

As for `CC1(C)CCC(C)(C)c2cc(CC#Cc3ccc(C(=O)O)cc3)ccc21`, the melting point is 167 to 168 °C.

`COC(=O)C(C)Oc1ccc(NC(=O)CCCCCO)cc1` (stereo unspecified): the melting point is 62 to 64.5 °C.

`COC(=O)C(CCBr)Oc1cc([N+](=O)[O-])cc2c1CCCC2` (stereo unspecified) had a melting point of 99 to 100 °C.

Regarding `Cc1nc(-c2ccc(OCc3ccncc3)cc2)no1`, the melting point was in the range of 132 to 133 °C.

In turn, `O=C1N(Cc2ccc(-c3ccccc3Cl)o2)c2ccccc2C12COc1cc3c(cc12)OCO3` (stereo unspecified) yielded a melting point of 148 to 150 °C.

On to `O=S(=O)(Nc1cccc(C=C2c3ccccc3CCc3ccccc32)c1)c1ccccc1`, for which the melting point is 122 °C.

Regarding `CCCCCCCCCCCCCCCCSC(=O)Nc1ccc(NC(=O)NS(=O)(=O)c2ccc(OC)cc2)cc1`, the melting point was determined as 197 °C.

Consider `CCCCc1nc2c(N)nc(C)c(C)c2n1CCCCNC(=O)c1ccccc1`, for which the melting point is 128 to 129 °C.

The compound `CN(c1nc(-c2cc3ccccc3[nH]c2=O)cs1)S(=O)(=O)c1ccccc1` returned a melting point of 242 to 244 °C.

As to `CCCCCCCCCCCCSCCOc1ccc(CCC(=O)O)cc1`, the melting point was 68 to 69 °C.

In turn, `Nc1ncnc2c1c(I)cn2COCCO` yielded a melting point of 169 to 170 °C.

`O=C1Cc2cc(-c3ccccc3)ccc2N1` returned a melting point of 214 to 215 °C.

In the case of `O=C(O)c1cn(Cc2cnsn2)c2nc(Cl)c(F)cc2c1=O`, the melting point was 231 to 232 °C.

`COc1ccc(C(=O)NCC(O)CC(=O)O)cc1OCc1ccccc1` (stereo unspecified) yielded a melting point of 158 to 160 °C.

Compound `O=C(CBr)C1=Cc2ccccc2OC1` yielded a melting point of 87 °C.

The compound `CC(=O)c1ccc2c(c1)C(C(=O)Nc1cccc(C(=O)Nc3ccccc3)c1)C(=O)N2CC(F)(F)F` (stereo unspecified) displayed a melting point of 197 to 203 °C.

In turn, `COC(=O)c1ccc(-c2nc(-c3cc(C)oc3C)cs2)cc1` registered a melting point of 103 to 105 °C.

In the case of `Oc1ccc(-c2ccc3ccccc3c2)nc1`, the melting point was in the range of 168 to 169 °C.

Turning to `Cn1cc(Oc2cc(Cl)cc(Cl)c2)c(=O)c(-c2cccc(C(F)(F)F)c2)c1`, the melting point fell in the range of 128 to 130 °C.

In turn, `Cc1cn(C2CC(O)C(CNCc3ccc(Cl)cc3)O2)c(=O)[nH]c1=O` (stereo unspecified) registered a melting point of 179 to 180 °C.

Compound `C=C(Br)CCC(=O)NC(C(=O)OCC)C(=O)OCC` displayed a melting point of 85 to 87 °C.

For `CCOC(=O)c1cc2c(s1)-c1c(SC)sc(C(=O)OCC)c1CC2`, the melting point is 107 to 108 °C.

For the compound `Cn1cc(-c2ccncc2)cc(N)c1=O`, the melting point fell in the range of 175 to 176 °C.

With `Cc1c(C)c2c(c(C)c1OCCCc1ccccc1)C(c1ccc(C(C)C)cc1)C(C)(C)O2` (stereo unspecified), the melting point lay in the range of 78 to 80 °C.

`CCOC(=O)c1ccc(-c2nc(C(=O)OCC)ns2)cc1` displayed a melting point of 66 to 67.5 °C.

Compound `CCn1ncc2c(NCC3CCCCC3)c3cccc(Br)c3nc21` gave a melting point of 160 to 162 °C.

The compound `COCCn1nc2c(N)nc3ncccc3c2c1CC(C)(C)O` gave a melting point of 233 to 236 °C.

On to `CN1CCN(c2cccc3ccc(NC(=O)c4ccc(O)cc4)cc23)CC1`, for which the melting point lay within 156 to 160 °C.

For `Cc1cccc(C(=O)O)c1Cl`, the melting point fell in the range of 141 to 142 °C.

`Cc1cc(C#CC(C)(C)O)cc(C)c1Oc1ccc([N+](=O)[O-])c(Nc2ccc(C#N)cc2)n1` showed a melting point of 114 to 116 °C.

The compound `Cc1ocnc1-c1cc(C(C)(C)C)c(O)c(C(C)(C)C)c1` had a melting point of 105 to 107 °C.

Compound `Clc1ccc(C=NCCN=Cc2ccc(Cl)nc2)cn1` displayed a melting point of 170 °C.

In turn, `NS(=O)(=O)c1nc2ccc(OC(=O)Cc3ccccc3)cc2s1` registered a melting point of 177 to 179 °C.

`CN(C)c1ccc2c(c1)C(=O)C(n1ccnc1)CC2` (stereo unspecified) showed a melting point of 160 to 162 °C.

As for `COc1cc(NC(C)=O)c(Cl)c(C(F)(F)F)c1Cl`, the melting point is 143 to 144 °C.

Compound `OCC12CO[C@@H](c3ccc(F)cc3)N1[C@H](c1ccc(F)cc1)OC2` displayed a melting point of 115 °C.

As for `Fc1ccc(Cl)cc1-c1nnn[nH]1`, the melting point came out at 124 °C.

As for `CCOC(=O)c1ccc2nc(NC)[nH]c2c1`, the melting point lay within 247 to 249 °C.

In turn, `CCN(CC)C(=O)c1cnn(C)c1C(=O)Nc1ccn2nc(-c3ccccc3)nc2c1` displayed a melting point of 177 to 179 °C.

Compound `CCOC(=O)NS(=O)(=O)c1cc(C(C)=O)ccc1Cl` displayed a melting point of 106 °C.

In turn, `Cc1nc(N2CCN(Cc3cc(F)cc(F)c3)C2=O)sc1C(N)=O` came in with a melting point of over 200 °C.

Consider `CC(=O)CC(=O)NC1CCCCCC1`, for which the melting point was determined as 52 °C.

In turn, `N#CCc1c[nH]c2ccc(N)cc12` yielded a melting point of 125 to 130 °C.

Compound `CC(C)c1cccc(C(C)C)c1NC(=O)NCC1CCc2ccccc21` (stereo unspecified) registered a melting point of 183 to 185 °C.

`CC(C)(C)OC(=O)C1C(C#CC(=O)O)C1(C)C` (stereo unspecified) showed a melting point of 144 °C.

Turning to `CSc1ccccc1C1CCN(CCCCNC(=O)c2ccc(-c3ccc(C(F)(F)F)cc3)cc2)CC1`, the melting point lay in the range of 191 to 192 °C.

Compound `COc1ccc(CNc2nc(CCCCCCC(=O)O)nc3sc(Cl)cc23)cc1Cl` returned a melting point of 137 °C.

As for `CC(CN1CCCC1)N1c2ccccc2Sc2ccc(C(=O)NCc3cccc(Cl)c3)cc21` (racemic), the melting point is 80 °C.

As to `CN1CCN(c2cccc(C(=O)N3CC=C(c4ccccc4F)CC3)n2)CC1`, the melting point was 177 °C.

In the case of `CNC(=O)[C@H]1O[C@@H](n2cnc3c(NCc4cc(Cl)ccc4OCC4OC(O)C(O)C(O)C4O)ncnc32)[C@H](O)[C@@H]1N` (stereo partly specified), the melting point lay within 212 to 218 °C.

As for `CCOC(=O)CC(=O)c1ccc(C#N)cc1`, the melting point is 64 °C.

Regarding `CCCCc1c(C)c(NC(=O)CC(C)(C)C)c(C)c2c1OCC2c1ccc(C(C)C)cc1` (stereo unspecified), the melting point fell in the range of 149 to 151 °C.

`CC(C)Oc1ccc(C=C2CCn3c2nc2cc(NC(=O)C(=O)O)ccc2c3=O)cc1` returned a melting point of 225 to 229 °C.

`c1csc(-c2nc3cc(COc4ccc(CCCCn5ccnc5)cc4)ccc3o2)c1` gave a melting point of 130 to 131 °C.

As to `COC(=O)C1CSC=CCCCC(=O)N1` (stereo unspecified), the melting point fell in the range of 160 to 161 °C.

On to `COc1ccc2cc(-c3ccc(S(C)(=O)=O)cc3)ccc2n1`, for which the melting point was in the range of 182 to 184 °C.

`Cc1c(N)c2c(c3c1C(c1ccc(C(C)C)cc1)CO3)CCC2` (stereo unspecified) registered a melting point of 112 to 113 °C.

Compound `CCOC1CC2(C)C(CCC3C4CCC(C(C)=O)C4(C)CC(NCCC(C)C)C32)CC1O` (stereo unspecified) showed a melting point of 110 to 112 °C.

As for `Cc1cc(SC(C)C)c(NC(=O)CCCCCCSc2nc3ccccc3[nH]2)c(SC(C)C)n1`, the melting point fell in the range of 118 to 121 °C.

For `CC(C)(C)OC(=O)NC12CC3CC(C1)CC(OS(C)(=O)=O)(C3)C2`, the melting point fell in the range of 100 to 102 °C.

The compound `CNC1CCc2[nH]c3ccc(OCc4ccccc4)cc3c2C1` (stereo unspecified) registered a melting point of 120 to 121 °C.

Compound `CCCCCN(CCCCC)C(=O)C(Cc1ccc(OCC(=O)O)c(C(=O)O)c1)NC(=O)C(Cc1ccccc1)NC(=O)OC(C)(C)C` (stereo unspecified) registered a melting point of 87 to 90 °C.

On to `Cc1occc(=O)c1OC(=O)c1ccccc1`, for which the melting point lay within 106 to 110 °C.

In turn, `Cc1ccc(C(C)n2[nH]c(C)cc2=O)cc1` (stereo unspecified) displayed a melting point of 144 to 146 °C.

Compound `COc1cccc2c1CCC(C(=O)O)C2C(=O)O` (stereo unspecified) returned a melting point of 200 to 201 °C.

For the compound `Oc1ccc(Cn2cc[nH]c2=S)cc1F`, the melting point lay within 161 to 165 °C.

In turn, `O=C(NC(Cc1ccc(F)cc1)C(=O)O)c1cn2cc(-c3ccc(Cl)cc3)ccc2n1` (stereo unspecified) had a melting point of 266 °C.

As for `C=C1N(C)C(=O)OC12CCN(C(=O)NCCCC)CC2`, the melting point was 129 to 130 °C.

Compound `CNC(=O)c1cccc2cccc(C(=O)Nc3ccc(F)cc3C)c12` displayed a melting point of 249 °C.

For the compound `COc1ccc(-c2nc3cc(C(N)=O)ccc3[nH]2)c2ccc(C(F)(F)F)nc12`, the melting point lay within 205 to 207 °C.

Consider `Cc1c(SCCCSCc2ccncc2)ccnc1CNc1cnc2ccccc2c1`, for which the melting point lay within 116 to 119 °C.

Consider `OCCCc1oc(-n2cccn2)nc1-c1ccc(Cl)cc1`, for which the melting point is 75 to 76 °C.

Compound `NC(=O)c1sc2nc(N3CCC(NCC(O)c4ccc5ccccc5n4)CC3)cc(C(F)(F)F)c2c1N` (stereo unspecified) registered a melting point of 198 to 201 °C.

`COc1ccc2c(c1)nnc1nnc(C)n12` had a melting point of 259 to 261 °C.

Regarding `COC(=O)c1ccc(OCC(O)CNC(C)(C)C)cc1` (stereo unspecified), the melting point was 88 to 89 °C.

In turn, `CC1(C)OC(=S)Nc2ccc(-c3cccc(F)c3F)cc21` registered a melting point of 197 to 198 °C.

Values taken from a melting point compilation (Tetko et al.; mined from patent text by program, amines drawn as free bases though some values may be those of a salt).
